The experiment concerns MV-4-11 cells. The experiment is described as follows: Gene expression microarray analysis (Affymetrix PrimeView) and GSEA. As to conditions: gene C12orf56; ACY-1035 vs DMSO; LIST F. The arrangement: RFU PODN (11730768_x_at) / Fold change /veh PODN (11730768_x_at) / RFU LINC00158 (11744669_a_at) / Fold change /veh LINC00158 (11744669_a_at) / RFU DUSP10 (11751237_a_at) / Fold change /veh DUSP10 (11751237_a_at) / RFU ID3 (11757404_x_at) / Fold change /veh ID3 (11757404_x_at) / RFU PLEKHG5 (11737974_s_at) / Fold change /veh PLEKHG5 (11737974_s_at) / RFU LRRC4B (11730491_at) / Fold change /veh LRRC4B (11730491_at) / RFU GIMAP4 (11747438_a_at) / Fold change /veh GIMAP4 (11747438_a_at) / RFU KRT8 (11758183_x_at) / Fold change /veh KRT8 (11758183_x_at) / RFU CNN1 (11734310_a_at) / Fold change /veh CNN1 (11734310_a_at) / RFU VPS37D (11726825_at) / Fold change /veh VPS37D (11726825_at) / RFU C10orf10 (11716522_x_at) / Fold change /veh C10orf10 (11716522_x_at) / RFU KIR2DL2 /// KIR2DL4 /// KIR2DL5A /// KIR2DL5B /// KIR2DS1 /// KIR2DS2 /// KIR2DS3 /// KIR2DS4 /// KIR3DL3 /// KIR3DL3 /// KIR3DS1 (11738374_at) / Fold change /veh KIR2DL2 /// KIR2DL4 /// KIR2DL5A /// KIR2DL5B /// KIR2DS1 /// KIR2DS2 /// KIR2DS3 /// KIR2DS4 /// KIR3DL3 /// KIR3DL3 /// KIR3DS1 (11738374_at) / RFU C1QL1 (11718748_at) / Fold change /veh C1QL1 (11718748_at) / RFU TMPRSS4 (11747572_a_at) / Fold change /veh TMPRSS4 (11747572_a_at) / RFU HAMP (11756126_x_at) / Fold change /veh HAMP (11756126_x_at) / RFU RNFT2 (11725882_a_at) / Fold change /veh RNFT2 (11725882_a_at) / RFU NR4A2 (11747474_a_at) / Fold change /veh NR4A2 (11747474_a_at) / RFU ABCC12 (11746883_a_at) / Fold change /veh ABCC12 (11746883_a_at) / RFU TMEM136 (11760407_x_at) / Fold change /veh TMEM136 (11760407_x_at) / RFU CLDN22 /// WWC2 (11732394_at) / Fold change /veh CLDN22 /// WWC2 (11732394_at) / RFU HLA-DPB1 (11760878_x_at) / Fold change /veh HLA-DPB1 (11760878_x_at) / RFU SPINT1 (11716480_a_at) / Fold change /veh SPINT1 (11716480_a_at) / RFU GAP43 (11754022_s_at) / Fold change /veh GAP43 (11754022_s_at) / RFU A4GNT (11735810_at) / Fold change /veh A4GNT (11735810_at) / RFU PRB3 (11715151_x_at) / Fold change /veh PRB3 (11715151_x_at) / RFU TUBB4B (11761932_at) / Fold change /veh TUBB4B (11761932_at) / RFU CAPN14 (11732068_a_at) / Fold change /veh CAPN14 (11732068_a_at) / RFU TMCC2 (11721928_a_at) / Fold change /veh TMCC2 (11721928_a_at) / RFU IRGQ (11745062_a_at) / Fold change /veh IRGQ (11745062_a_at) / RFU FAM174B (11720279_a_at) / Fold change /veh FAM174B (11720279_a_at) / RFU TMPRSS4 (11748680_a_at) / Fold change /veh TMPRSS4 (11748680_a_at) / RFU FAM212B (11763350_a_at) / Fold change /veh FAM212B (11763350_a_at) / RFU PLEKHG5 (11743358_a_at) / Fold change /veh PLEKHG5 (11743358_a_at) / RFU ZSCAN30 (11745921_a_at) / Fold change /veh ZSCAN30 (11745921_a_at) / RFU CMKLR1 (11741424_a_at) / Fold change /veh CMKLR1 (11741424_a_at) / RFU LOC101060620 /// MAPK8IP1 (11723275_at) / Fold change /veh LOC101060620 /// MAPK8IP1 (11723275_at) / RFU SPTSSB (11747773_x_at) / Fold change /veh SPTSSB (11747773_x_at) / RFU PRSS12 (11739890_at) / Fold change /veh PRSS12 (11739890_at) / RFU BIN1 (11741810_x_at) / Fold change /veh BIN1 (11741810_x_at) / RFU WNT11 (11732464_a_at) / Fold change /veh WNT11 (11732464_a_at) / RFU C10orf10 (11716521_a_at) / Fold change /veh C10orf10 (11716521_a_at) / RFU C5orf56 (11738089_at) / Fold change /veh C5orf56 (11738089_at) / RFU CYB561 (11721691_x_at) / Fold change /veh CYB561 (11721691_x_at) / RFU ANKRD19P (11752326_a_at) / Fold change /veh ANKRD19P (11752326_a_at) / RFU OR2T12 /// OR2T33 /// OR2T8 (11738714_s_at) / Fold change /veh OR2T12 /// OR2T33 /// OR2T8 (11738714_s_at) / RFU VCAN (11748164_a_at) / Fold change /veh VCAN (11748164_a_at) / RFU JSRP1 (11732532_at) / Fold change /veh JSRP1 (11732532_at) / RFU KRTAP10-11 (11738290_x_at) / Fold change /veh KRTAP10-11 (11738290_x_at) / RFU MYO3A (11730013_a_at) / Fold change /veh MYO3A (11730013_a_at) / RFU EBF3 (11725865_a_at) / Fold change /veh EBF3 (11725865_a_at) / RFU CAMK2N1 (11719241_x_at) / Fold change /veh CAMK2N1 (11719241_x_at) / RFU C5orf56 (11738088_a_at) / Fold change /veh C5orf56 (11738088_a_at) / RFU OLFML3 (11715873_a_at) / Fold change /veh OLFML3 (11715873_a_at) / RFU LOC100653217 /// NTM (11731650_a_at) / Fold change /veh LOC100653217 /// NTM (11731650_a_at) / RFU MAPK11 (11762145_a_at) / Fold change /veh MAPK11 (11762145_a_at) / RFU FIZ1 (11724087_x_at) / Fold change /veh FIZ1 (11724087_x_at) / RFU OASL (11726364_x_at) / Fold change /veh OASL (11726364_x_at) / RFU SOX15 (11748057_x_at) / Fold change /veh SOX15 (11748057_x_at) / RFU CD79A (11719716_a_at) / Fold change /veh CD79A (11719716_a_at) / RFU HIST1H1D (11736915_at) / Fold change /veh HIST1H1D (11736915_at) / RFU CASKIN2 (11723855_a_at) / Fold change /veh CASKIN2 (11723855_a_at) / RFU LOC730098 (11760151_x_at) / Fold change /veh LOC730098 (11760151_x_at) / RFU OR4N2 (11742367_at) / Fold change /veh OR4N2 (11742367_at) / RFU PRRT2 (11749266_a_at) / Fold change /veh PRRT2 (11749266_a_at) / RFU SNX32 (11753110_a_at) / Fold change /veh SNX32 (11753110_a_at) / RFU CDHR5 (11726645_a_at) / Fold change /veh CDHR5 (11726645_a_at) / RFU RCAN1 (11760418_a_at) / Fold change /veh RCAN1 (11760418_a_at) / RFU FAM167A (11723789_a_at) / Fold change /veh FAM167A (11723789_a_at) / RFU FAM26E (11764081_at) / Fold change /veh FAM26E (11764081_at) / RFU ISYNA1 (11749810_s_at) / Fold change /veh ISYNA1 (11749810_s_at) / RFU ACY1 (11761880_at) / Fold change /veh ACY1 (11761880_at) / RFU 11764098_at / Fold change /veh 11764098_at / RFU SAMD14 (11745864_x_at) / Fold change /veh SAMD14 (11745864_x_at) / RFU NPB (11741838_a_at) / Fold change /veh NPB (11741838_a_at) / RFU TMPRSS6 (11731388_a_at) / Fold change /veh TMPRSS6 (11731388_a_at) / RFU KRTAP10-2 (11738614_at) / Fold change /veh KRTAP10-2 (11738614_at) / RFU ARHGAP8 /// PRR5-ARHGAP8 (11727945_x_at) / Fold change /veh ARHGAP8 /// PRR5-ARHGAP8 (11727945_x_at) / RFU KRTAP5-7 /// NADSYN1 (11734609_at) / Fold change /veh KRTAP5-7 /// NADSYN1 (11734609_at) / RFU RASL12 (11751679_a_at) / Fold change /veh RASL12 (11751679_a_at) / RFU CDKN2B (11736163_a_at) / Fold change /veh CDKN2B (11736163_a_at) / RFU PRF1 (11729649_at) / Fold change /veh PRF1 (11729649_at) / RFU, ZNF638 /// ZNF638-IT1 / Fold change vs veh, ZNF638 /// ZNF638-IT1 / RFU, PANK3 / Fold change vs veh, PANK3 / RFU, SH3YL1 / Fold change vs veh, SH3YL1 / RFU, ZEB2 / Fold change vs veh, ZEB2 / RFU, NRIP1 / Fold change vs veh, NRIP1 / RFU, PTTG1IP / Fold change vs veh, PTTG1IP / RFU, CAPN2 / Fold change vs veh, CAPN2 / RFU, MED14 / Fold change vs veh, MED14 / RFU, SNORA58 / Fold change vs veh, SNORA58 / RFU, C1orf63 / Fold change vs veh, C1orf63 / RFU, LRRFIP1 / Fold change vs veh, LRRFIP1 / RFU, NDUFAF7 / Fold change vs veh, NDUFAF7 / RFU, SLC12A2 / Fold change vs veh, SLC12A2 / RFU, IBTK / Fold change vs veh, IBTK / RFU, ESF1 / Fold change vs veh, ESF1 / Fold change vs veh, TMEM50B / RFU, TAOK1 / Fold change vs veh, TAOK1 / RFU, ACBD3 / Fold change vs veh, ACBD3 / RFU, TMA16 / Fold change vs veh, TMA16 / RFU, RWDD3 / Fold change vs veh, RWDD3 / RFU, BCAT1 / Fold change vs veh, BCAT1 / RFU, EDEM3 / Fold change vs veh, EDEM3 / RFU, TMEM33 / Fold change vs veh, TMEM33 / RFU, WDR75 / Fold change vs veh, WDR75 / RFU, AHCTF1 / Fold change vs veh, AHCTF1 / RFU, TFRC / Fold change vs veh, TFRC / RFU, ZDHHC17 / Fold change vs veh, ZDHHC17 / RFU, NOM1 / Fold change vs veh, NOM1 / RFU, ARL8B / Fold change vs veh, ARL8B / RFU, ZBTB11 / Fold change vs veh, ZBTB11 / RFU, TAMM41 / Fold change vs veh, TAMM41 / RFU, KIAA1704 /// LOC100996395 / Fold change vs veh, KIAA1704 /// LOC100996395 / RFU, ING1 / Fold change vs veh, ING1 / RFU, TRMT61B / Fold change vs veh, TRMT61B / RFU, FUBP3 / Fold change vs veh, FUBP3 / RFU, TP53 / Fold change vs veh, TP53 / RFU, TNKS2 / Fold change vs veh, TNKS2 / RFU, ZFP14 / Fold change vs veh, ZFP14 / RFU, ACTR2 / Fold change vs veh, ACTR2 / RFU, PPP3R1 / Fold change vs veh, PPP3R1 / RFU, PIK3R1 / Fold change vs veh, PIK3R1 / RFU, HNRNPA1 / Fold change vs veh, HNRNPA1 / RFU, RNF170 / Fold change vs veh, RNF170 / RFU, ZNF28 / Fold change vs veh, ZNF28 / RFU, RNGTT / Fold change vs veh, RNGTT / RFU, OGT / Fold change vs veh, OGT / RFU, BRD1 / Fold change vs veh, BRD1 / RFU, MARS / Fold change vs veh, MARS / RFU, ZNF655 / Fold change vs veh, ZNF655 / RFU, FAHD1 / Fold change vs veh, FAHD1 / RFU, BDP1 / Fold change vs veh, BDP1 / RFU, LRRCC1 / Fold change vs veh, LRRCC1 / RFU, ARID1A / Fold change vs veh, ARID1A / RFU, ZNF146 / Fold change vs veh, ZNF146 / RFU, ZNF330 / Fold change vs veh, ZNF330 / RFU, GPN3 / Fold change vs veh, GPN3 / RFU, C9orf123 / Fold change vs veh, C9orf123 / RFU, N4BP2L2 / Fold change vs veh, N4BP2L2 / RFU, ARFIP1 / Fold change vs veh, ARFIP1 / RFU, FAM179B / Fold change vs veh, FAM179B / RFU, BCL10 / Fold change vs veh, BCL10 / RFU, UHRF1BP1L / Fold change vs veh, UHRF1BP1L / RFU, BET1 / Fold change vs veh, BET1 / RFU, CNOT2 / Fold change vs veh, CNOT2 / RFU, ZNF268 / Fold change vs veh, ZNF268 / Fold change vs veh, ZNF507 / RFU, DGCR2 / Fold change vs veh, DGCR2 / RFU, WDSUB1 / Fold change vs veh, WDSUB1 / Fold change vs veh, HSP90B1 /// MIR3652 / RFU, ADSS / Fold change vs veh, ADSS / RFU, GK / Fold change vs veh, GK / RFU, ZNF148 / Fold change vs veh, ZNF148 / RFU, TAF9 / Fold change vs veh, TAF9 / RFU, SLC1A5 / Fold change vs veh, SLC1A5 / RFU, SLMO2 / Fold change vs veh, SLMO2 / RFU, ABCC4 / Fold change vs veh, ABCC4 / RFU, LOC101060439 /// RAP1B / Fold change vs veh, LOC101060439 /// RAP1B / RFU, RFX7 / Fold change vs veh, RFX7 / RFU, GTPBP10 / Fold change vs veh, GTPBP10 / RFU, CNEP1R1 / Fold change vs veh, CNEP1R1 / RFU, BIVM-ERCC5 /// ERCC5 / Fold change vs veh, BIVM-ERCC5 /// ERCC5 / RFU, ILF3 / Fold change vs veh, ILF3 / RFU 11762660_at / Fold change /veh 11762660_at / RFU VCAN (11757783_s_at) / Fold change /veh VCAN (11757783_s_at) / RFU DDX43 (11728927_at) / Fold change /veh DDX43 (11728927_at) / RFU KRT8 (11758188_x_at) / Fold change /veh KRT8 (11758188_x_at) / RFU NKD1 (11759106_at) / Fold change /veh NKD1 (11759106_at) / RFU SRD5A1 (11742802_a_at) / Fold change /veh SRD5A1 (11742802_a_at) / RFU TPSAB1 /// TPSB2 (11721975_s_at) / Fold change /veh TPSAB1 /// TPSB2 (11721975_s_at) / RFU GSTM3 (11746129_a_at) / Fold change /veh GSTM3 (11746129_a_at) / RFU IL23R (11737362_x_at) / Fold change /veh IL23R (11737362_x_at) / RFU TMEM51 (11727254_a_at) / Fold change /veh TMEM51 (11727254_a_at) / RFU PIWIL2 (11732686_x_at) / Fold change /veh PIWIL2 (11732686_x_at) / RFU ORM1 (11744905_x_at) / Fold change /veh ORM1 (11744905_x_at) / RFU CCDC152 (11743942_at) / Fold change /veh CCDC152 (11743942_at) / RFU ECM1 (11717891_a_at) / Fold change /veh ECM1 (11717891_a_at) / RFU IL23R (11748794_a_at) / Fold change /veh IL23R (11748794_a_at) / RFU TNFAIP8L3 (11732012_x_at) / Fold change /veh TNFAIP8L3 (11732012_x_at) / RFU MBOAT4 (11741988_at) / Fold change /veh MBOAT4 (11741988_at) / RFU 11764193_at / Fold change /veh 11764193_at / RFU TMEM53 (11763286_at) / Fold change /veh TMEM53 (11763286_at) / RFU MAGEB2 (11727129_at) / Fold change /veh MAGEB2 (11727129_at) / RFU TMEM200A (11744735_a_at) / Fold change /veh TMEM200A (11744735_a_at) / RFU CCDC152 (11751479_a_at) / Fold change /veh CCDC152 (11751479_a_at) / RFU FAM211A (11726209_a_at) / Fold change /veh FAM211A (11726209_a_at) / RFU RGS16 (11746705_a_at) / Fold change /veh RGS16 (11746705_a_at) / RFU VCAN (11755009_s_at) / Fold change /veh VCAN (11755009_s_at) / RFU RHOB (11743442_s_at) / Fold change /veh RHOB (11743442_s_at) / RFU RGS16 (11720943_a_at) / Fold change /veh RGS16 (11720943_a_at) / RFU RGS16 (11720944_at) / Fold change /veh RGS16 (11720944_at) / RFU, VPS4B / Fold change vs veh, VPS4B / RFU, CREB1 / Fold change vs veh, CREB1 / RFU, DNAJC13 / Fold change vs veh, DNAJC13 / RFU, GNAQ / Fold change vs veh, GNAQ / RFU, CDK5R1 / Fold change vs veh, CDK5R1 / RFU, ZRANB3 / Fold change vs veh, ZRANB3 / RFU, CUL4A / Fold change vs veh, CUL4A / RFU, CCNY / Fold change vs veh, CCNY / RFU, UFL1 / Fold change vs veh, UFL1 / RFU, COG3 / Fold change vs veh, COG3 / RFU, DIAPH2 / Fold change vs veh, DIAPH2 / RFU, SKA2 / Fold change vs veh, SKA2 / RFU, AFF3 / Fold change vs veh, AFF3 / RFU, LMF1 / Fold change vs veh, LMF1 / RFU, IPO11 / Fold change vs veh, IPO11 / RFU, DFFB / Fold change vs veh, DFFB / RFU, FOXP1 / Fold change vs veh, FOXP1 / RFU, CARD8 / Fold change vs veh, CARD8 / RFU, STRN3 / Fold change vs veh, STRN3 / RFU, ADK / Fold change vs veh, ADK / RFU, RASSF2 / Fold change vs veh, RASSF2 / RFU, WIPF1 / Fold change vs veh, WIPF1 / RFU, LARP1B / Fold change vs veh, LARP1B / RFU, RASA1 / Fold change vs veh, RASA1 / RFU, RB1 / Fold change vs veh, RB1 / RFU, PPFIA1 / Fold change vs veh, PPFIA1 / RFU, MAT2A / Fold change vs veh, MAT2A / RFU, CCT5 / Fold change vs veh, CCT5 / RFU, WDR92 / Fold change vs veh, WDR92 / RFU, CUX1 / Fold change vs veh, CUX1 / RFU, TTC7A / Fold change vs veh, TTC7A / RFU, TMEM135 / Fold change vs veh, TMEM135 / RFU, DEPTOR / Fold change vs veh, DEPTOR / RFU, CPM / Fold change vs veh, CPM / RFU, DNAJB6 / Fold change vs veh, DNAJB6 / RFU, CACNA2D3 / Fold change vs veh, CACNA2D3 / RFU, DTX4 / Fold change vs veh, DTX4 / RFU, TFCP2 / Fold change vs veh, TFCP2 / RFU, GMCL1 /// GMCL1P1 / Fold change vs veh, GMCL1 /// GMCL1P1 / RFU, AEBP2 / Fold change vs veh, AEBP2 / RFU, SNHG1 /// SNORD22 /// SNORD25 /// SNORD26 /// SNORD27 /// SNORD28 /// SNORD29 /// SNORD31 / Fold change vs veh, SNHG1 /// SNORD22 /// SNORD25 /// SNORD26 /// SNORD27 /// SNORD28 /// SNORD29 /// SNORD31 / Fold change (Aza/veh), C12orf56 (ProbeSet 11735607_a_at) / Fold change (ACY-1035/veh), C12orf56 (ProbeSet 11735607_a_at) / Fold change (Aza/veh), FGFR1OP (ProbeSet 11751329_s_at) / Fold change (ACY-1035/veh), FGFR1OP (ProbeSet 11751329_s_at) / Fold change (Aza/veh), VPS36 (ProbeSet 11739960_a_at) / Fold change (ACY-1035/veh), VPS36 (ProbeSet 11739960_a_at) / RFU SYPL1 (11715823_x_at) / Fold change /veh SYPL1 (11715823_x_at) / RFU IGFBP7 (11715501_s_at) / Fold change /veh IGFBP7 (11715501_s_at) / RFU REEP3 (11722064_at) / Fold change /veh REEP3 (11722064_at) / RFU IGLL1 (11728026_x_at) / Fold change /veh IGLL1 (11728026_x_at): dose or concentration left out as unconfirmed. The experiment is classed as cell-based, human.

In the case of `Nc1ccc(-c2cccs2)cc1NC(=O)c1ccc2c(c1)cc(C1CC1)n2CCN1CCOCC1` [ACY-1035], the “Fold change (ACY-1035/veh), C12orf56 (ProbeSet 11735607_a_at)” value was found to be 0.39.

The values above are taken from article PMC5218480 (PLoS ONE, 2017).
